In one assay the target is T1, human CYP11B1 (Homo sapiens, UniProt P15538).
T1 construct: expressed in transfected cells; host or cells: V79 cells (clone V79-hCYP11B1-8CLC7)
T1 sequence (P15538 25-503): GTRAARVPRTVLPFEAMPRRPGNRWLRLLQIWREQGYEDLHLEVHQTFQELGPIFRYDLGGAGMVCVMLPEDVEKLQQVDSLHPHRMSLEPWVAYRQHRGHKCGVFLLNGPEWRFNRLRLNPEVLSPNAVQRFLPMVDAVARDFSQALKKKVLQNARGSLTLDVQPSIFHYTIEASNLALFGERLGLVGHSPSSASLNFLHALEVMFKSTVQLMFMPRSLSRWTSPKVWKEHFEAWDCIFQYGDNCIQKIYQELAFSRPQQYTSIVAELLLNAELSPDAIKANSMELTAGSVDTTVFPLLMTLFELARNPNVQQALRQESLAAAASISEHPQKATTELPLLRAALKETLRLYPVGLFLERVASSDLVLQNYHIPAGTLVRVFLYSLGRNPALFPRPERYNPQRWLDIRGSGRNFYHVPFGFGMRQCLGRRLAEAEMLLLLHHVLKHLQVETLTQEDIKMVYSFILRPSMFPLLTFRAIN
Nature of the assay: V79-Human-CYP11B1 cell assay. It is filed as cell-based. The following applies: V79 cells stably expressing human CYP11B1; 250 nM 11-deoxycortisol substrate; cortisol by HTRF. The procedure:
(§1) Methods for V79-Human-CYP11B2 and V79-Human-CYP11B1 Assays: V79 cell lines stably expressing the either the human CYP11B2 or the human CYP11B1 enzyme were generated using a standard transfection protocol. V79 cells were transfected with plasmids pTriEx3-Hygro-hCyp11B2 or pTriEx3-Hygro-hCyp11B1 using Lipofectamine2000 reagent. […] Single cell clones were generated by […] in DMEM supplemented with 10% FBS and 400 μg/mL hygromycin until single colonies were obtained. […] The reaction was carried out for 3 hours at 37° C., 5% CO2 and was stopped by harvesting the supernatants. […] IC50s for the inhibitor were determined by plotting the amount of product formed against the concentration of inhibitor using sigmoidal dose-response curve (variable slope) fit in GraphPad.
On the technique in general: In TR-FRET formats the signal depends on donor and acceptor labels being close together.

The next assay concerns the target T2, human CYP11B2 (Homo sapiens, UniProt P19099).
T2 construct: expressed in transfected cells; host or cells: V79 cells (clone V79-hCYP11B2-CLE9)
T2 sequence (P19099 25-503): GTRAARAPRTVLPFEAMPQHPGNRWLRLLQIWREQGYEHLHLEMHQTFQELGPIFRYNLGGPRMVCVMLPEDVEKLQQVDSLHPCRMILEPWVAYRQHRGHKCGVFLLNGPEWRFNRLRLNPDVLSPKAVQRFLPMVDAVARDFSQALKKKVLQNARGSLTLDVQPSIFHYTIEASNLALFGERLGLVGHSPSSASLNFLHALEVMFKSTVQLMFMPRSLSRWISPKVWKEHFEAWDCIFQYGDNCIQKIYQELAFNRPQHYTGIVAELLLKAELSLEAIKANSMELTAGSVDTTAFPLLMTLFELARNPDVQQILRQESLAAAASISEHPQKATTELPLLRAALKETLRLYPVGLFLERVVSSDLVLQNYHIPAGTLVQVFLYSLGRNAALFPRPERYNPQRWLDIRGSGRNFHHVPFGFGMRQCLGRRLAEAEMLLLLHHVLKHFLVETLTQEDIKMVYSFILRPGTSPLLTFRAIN
Nature of the assay: V79-Human-CYP11B2 cell assay. It is filed as cell-based. The settings on record: V79 cells stably expressing human CYP11B2; 125 nM 11-deoxycorticosterone substrate; aldosterone by HTRF. The protocol:
as §1

Usually IC50 stands for the concentration needed to halve the response being measured. The low end stands for greater potency in that assay, the high end for weaker potency in that assay. Regarding `CN(C)c1cncc(-n2ncc3c(Cl)cccc32)n1` [Example 88, 6-(4-chloro-1H-indazol-1-yl)-N,N-dimethylpyrazin-2-amine], the IC50 against human CYP11B1 was determined as 633 nM; at human CYP11B2 it was 17.5 nM.
In the same order, the values of `Clc1cccc2c1cnn2-c1cncc(N2CCC2)n1` [Example 90, 1-(6-azetidin-1-ylpyrazin-2-yl)-4-chloro-1H-indazole] are 31.5 nM and 1.6 nM.
In the same order, the values of `CCc1c(F)cncc1-n1ncc2c(F)cccc21` [Example 42, 1-(4-ethyl-5-fluoropyridin-3-yl)-4-fluoro-1H-indazole] are 1800 nM and 131 nM.
In the same order, the values of `CC(O)(c1cncc(-n2ncc3c2CCCC3)c1)C(F)(F)F` (centres unmarked) [Example 75] are 498 nM and 7.7 nM.
Regarding `Fc1ccc2c(cnn2-c2cncc(C(F)(F)F)c2)c1` [Example 6, 5-fluoro-1-(5-(trifluoromethyl)pyridin-3-yl)-1H-indazole], the half-inhibitory concentration (IC50) stood at 1910 nM at human CYP11B1 and 83 nM against human CYP11B2.
In the same order, the values of `CC(C)(O)c1cncc(-n2ncc3cccc(F)c32)c1` [Example 68, 2-(5-(7-fluoro-1H-indazol-1-yl)pyridin-3-yl)propan-2-ol] are 36.4 nM and 1.2 nM.
On the same counts, the results for `C[C@](O)(c1cncc(-n2ncc3c(C(F)(F)F)cccc32)c1)C(F)(F)F` [Example 85, (S)-1,1,1-trifluoro-2-(5-(4-(trifluoromethyl)-1H-indazol-1-yl)pyridin-3-yl)propan-2-ol] are 98 nM and 2.2 nM.
On the same counts, the results for `CC(C)(O)c1cncc(-n2ncc3cc(F)c(F)cc32)c1` [Example 54, 2-(5-(5,6-difluoro-1H-indazol-1-yl)pyridin-3-yl)propan-2-ol] are 305 nM and 23 nM.
As for `Fc1cc2cnn(-c3cncc4ccccc34)c2cc1F` [Example 46, 4-(5,6-difluoro-1H-indazol-1-yl)isoquinoline], the IC50 was found to be 107 nM against human CYP11B1 and 1.9 nM against human CYP11B2.
On the same counts, the results for `Cc1nn(-c2cncc(C(F)(F)F)c2)c2cccc(F)c12` [Example 36, 4-fluoro-3-methyl-1-(5-(trifluoromethyl)pyridin-3-yl)-1H-indazole] are 257 nM and 17 nM.

The values above are taken from US9522141B2, “Indazole compounds as aldosterone synthase inhibitors” (Merck Sharp & Dohme Corp., priority 2012, dated 2016).
